Tests used:
HeLa cells [1] = format: cell-based, human
[2] = tested on: C. perfringens iota toxin on Vero cells; format: cell-based, African green monkey
[3] = tested on: Ia of C. perfringens iota toxin; format: biochemical, Clostridium perfringens
[4] = tested on: iota toxin receptor binding on Vero cells; format: cell-based, African green monkey; settings: 4 °C, 30 min
[5] = tested on: C. perfringens iota toxin on Vero cells; format: cell-based, African green monkey; remark: listed apart in the source
Hsp70 [6] = settings: read-out: dissociation constant; cited from earlier work
HT-29 = test: cells; format: cell-based; settings: Homo sapiens, HT-29, 48 h, read-out: EC50 value
Hsp70 [7] = biological target: T1, Hsp70 (Homo sapiens, UniProt P0DMV8); format: biochemical; set-up: made in house; settings: concentrations up to 200 μM; 0.5 μM Hsp70, 1 mM ATP
HeLa cells [8] = format: cell-based, human; remark: listed apart in the source
HEK-293 = test: cells; format: cell-based; settings: Homo sapiens, HEK293, 48 h, read-out: EC50 value
Hsp70 [9] = biological target: T1, Hsp70; test: biochemical; set-up: made in house
HeLa cells [10] = format: cell-based, human; remark: listed apart in the source
Hsp70 [11] = biological target: T1, Hsp70; test: biochemical
Hsc70 [12] = biological target: T2, Hsc70 (Homo sapiens, UniProt P11142); format: binding; set-up: endogenous in cells; host or cells: HeLa cell lysate; settings: HeLa cell lysate
HeLa cells [13] = settings: human, 24 h
HeLa cells [14] = test: cells; format: cell-based; settings: Homo sapiens; for EC50: read-out: EC50 cell survival, clonogenic assay; for IC50: read-out: IC50 survival, clonogenic assay
Hsc70 [15] = biological target: T2, Hsc70; test: biochemical; format: biochemical; set-up: made in house
SH-SY5Y = test: cells; format: cell-based; settings: Homo sapiens, 48 h, read-out: EC50 value
HeLa cells [16] = format: cell-based, human; remark: listed apart in the source
HeLa = test: cells; format: cell-based; settings: Homo sapiens, 48 h, read-out: EC50 value
Hsp70 [17] = biological target: T1, Hsp70; format: binding; set-up: made in house; settings: 500 nM Hsp70, 50 μM 1; five of six regions
Hsp70 [18] = biological target: T1, Hsp70; settings: ITC, 20 °C
Hsp70 [19] = biological target: T1, Hsp70; format: binding; set-up: made in house; settings: HeLa cell lysate

T1 sequence (P0DMV8 whole entry): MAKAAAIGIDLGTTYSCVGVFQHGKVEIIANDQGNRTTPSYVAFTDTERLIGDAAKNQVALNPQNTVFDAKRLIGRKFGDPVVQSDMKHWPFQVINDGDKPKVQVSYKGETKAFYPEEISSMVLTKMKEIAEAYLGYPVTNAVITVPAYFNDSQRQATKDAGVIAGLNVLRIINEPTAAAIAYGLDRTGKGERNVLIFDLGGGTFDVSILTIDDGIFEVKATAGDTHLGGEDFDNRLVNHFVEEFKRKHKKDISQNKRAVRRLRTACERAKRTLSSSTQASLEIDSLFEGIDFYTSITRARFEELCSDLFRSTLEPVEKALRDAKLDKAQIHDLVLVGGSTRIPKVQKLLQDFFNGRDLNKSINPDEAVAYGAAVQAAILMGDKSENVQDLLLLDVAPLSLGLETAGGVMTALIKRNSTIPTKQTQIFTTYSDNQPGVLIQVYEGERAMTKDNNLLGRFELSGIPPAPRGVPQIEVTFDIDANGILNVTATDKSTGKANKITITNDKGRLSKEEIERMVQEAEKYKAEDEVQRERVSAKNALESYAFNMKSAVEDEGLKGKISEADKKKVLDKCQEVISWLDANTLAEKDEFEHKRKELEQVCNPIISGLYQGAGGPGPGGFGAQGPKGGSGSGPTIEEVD
T2 sequence (P11142 whole entry): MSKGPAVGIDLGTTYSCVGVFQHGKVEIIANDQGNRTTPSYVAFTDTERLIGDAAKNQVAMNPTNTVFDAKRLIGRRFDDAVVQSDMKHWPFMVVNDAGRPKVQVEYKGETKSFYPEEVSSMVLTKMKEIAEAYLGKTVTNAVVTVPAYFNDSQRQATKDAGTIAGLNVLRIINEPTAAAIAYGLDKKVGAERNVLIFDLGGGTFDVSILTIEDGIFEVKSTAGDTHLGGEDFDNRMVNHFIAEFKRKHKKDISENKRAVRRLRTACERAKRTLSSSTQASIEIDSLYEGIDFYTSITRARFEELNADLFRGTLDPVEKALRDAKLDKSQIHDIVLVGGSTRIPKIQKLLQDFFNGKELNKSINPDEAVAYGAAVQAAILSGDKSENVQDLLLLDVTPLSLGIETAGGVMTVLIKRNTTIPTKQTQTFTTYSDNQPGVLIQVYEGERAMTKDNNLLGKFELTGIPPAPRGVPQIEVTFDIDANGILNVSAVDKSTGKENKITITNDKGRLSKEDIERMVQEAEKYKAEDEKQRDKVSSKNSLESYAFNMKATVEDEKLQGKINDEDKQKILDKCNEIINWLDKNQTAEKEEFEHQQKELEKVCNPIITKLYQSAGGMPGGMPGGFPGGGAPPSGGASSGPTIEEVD

Compound: F[B-](F)(F)F.[Na+] [NaBF4]
- apoptosis of HeLa cells, salt with staurosporine (HeLa cells [1]): do not affect

Compound: N#Cc1ccc(COC[C@H]2O[C@@H](n3c(NCc4ccc(Cl)c(Cl)c4)nc4c(N)ncnc43)[C@H](O)[C@@H]2O)cc1 [VER-155008]
- intoxication of the cells with iota toxin [2]: inhibitory effect
- enzyme activity of Ia [3]: had no effect
- binding of iota toxin to the cells [4]: had no effect
- round cells after acidic pulse (translocation of Ia) [5]: significantly less round cells
- Kd (Hsp70 [6]): 0.3 µM

Compound: Nc1ccc2c[n+]3ccccc3cc2c1 [Compound 1]
- toxin-induced cell-rounding [2]: significantly delayed
- EC50 (HT-29): 71.6 ± 34 µM
- ATPase activity of Hsp70 (Hsp70 [7]): remained unaffected
- apoptosis induction by staurosporine (HeLa cells [1]): enhanced apoptosis induction
- cleavage of procaspases 3 and 7 in combination with staurosporine (HeLa cells [1]): synergistic effect
- procaspase cleavage, compound alone (HeLa cells [1]): did not result in significant procaspase cleavage
- amount of Hsp70 in HeLa cells (HeLa cells [8]): did not influence
- EC50 (HEK-293): 29.1 ± 1.1 µM
- IC50 (Hsp70 [9]): 45 ± 4 µM
- cytoplasmic vacuolization after heat stress (HeLa cells [10]): strong cytoplasmic vacuolization
- localization of Hsp70 at 37 °C (HeLa cells [10]): did not alter
- localization of Hsp70 at 42 °C (HeLa cells [10]): dramatic Hsp70 re-distribution into the whole nucleus
- subcellular distribution of Hsp70 in thymidine- and nocodazole-treated cells (HeLa cells [10]): did not change
- Kd (Hsp70 [11]): 5.6 ± 3.1 µM
- Hsc70 bound to matrix-coupled 1 (Hsc70 [12]): no detectable amount of Hsc70
- compound remaining intact in HeLa cell lysate (HeLa cells [13]): 90%
- EC50 (HeLa cells [14]): 11.2 µM
- IC50 (HeLa cells [14]): 11.2 µM
- IC50 (Hsc70 [15]): 363 ± 20 µM
- Inhibition of Hsc70 less efficient compared to Hsp70 (Hsc70 [15]; luciferase refolding): 8 fold
- EC50 (SH-SY5Y): 58.1 ± 4.6 µM
- accumulation in G2/M phase (HeLa cells [16]): did not accumulate in the G2/M phase
- cell cycle phase distribution (HeLa cells [16]): did not result in changes
- cells remaining in G2/M (HeLa cells [16]): > 20%
- EC50 (HeLa): 19.5 ± 2.5 µM
- Hsp70 binding to p53-derived peptide regions in the presence of 1 (Hsp70 [17]): abolished
- stoichiometry N (Hsp70 [18]): 1.1
- TΔSITC (Hsp70 [18]; pH 7.8): 8.3 kcal/mol
- binding enthalpy ΔHITC (Hsp70 [18]; pH 7.8): 1.3 ± 0.3 kcal/mol
- ΔGITC (Hsp70 [18]; pH 7.8): -7.0 kcal/mol
- Hsp70 bound to matrix-coupled 1 (Hsp70 [19]): detection of Hsp70

Compound: C[C@@H]1C[C@H]2O[C@@H]2/C=C\C=C\C(=O)Cc2c(Cl)c(O)cc(O)c2C(=O)O1 [radicicol]
- enzyme activity of Ia [3]: had no effect
- binding of iota toxin to the cells [4]: had no effect
- round cells after acidic pulse (translocation of Ia) [5]: significantly less round cells

Compound: c1cc[n+]2cc3ccc(N4CCCC4)cc3cc2c1 [Compound 2]
- IC50 (Hsp70 [9]): 127 ± 7 µM
- IC50 (Hsc70 [15]): 34 ± 3 µM

Compound: [Br-].[Na+] [NaBr]
- apoptosis of HeLa cells, salt with staurosporine (HeLa cells [1]): do not affect

Compound: CSc1ccc2c[n+]3ccccc3cc2c1 [Compound 3]
- intoxication of Vero cells with iota toxin [2]: no comparable inhibitory effect
- EC50 (HT-29): 115 ± 52.4 µM
- cleavage of procaspases 3 and 7 in combination with staurosporine (HeLa cells [1]): did not result in significant procaspase cleavage
- procaspase cleavage, compound alone (HeLa cells [1]): did not result in significant procaspase cleavage
- EC50 (HEK-293): 22.6 ± 1.3 µM
- IC50 (Hsp70 [9]): 1050 ± 53 µM
- localization of Hsp70 at 37 °C (HeLa cells [10]): did not alter
- localization of Hsp70 at 42 °C (HeLa cells [10]): did not alter
- compound remaining intact in HeLa cell lysate (HeLa cells [13]): 90%
- EC50 (HeLa cells [14]): 13.1 µM
- IC50 (HeLa cells [14]): 13.1 µM
- IC50 (Hsc70 [15]): 931 ± 47 µM
- EC50 (SH-SY5Y): 70 ± 10.5 µM
- EC50 (HeLa): 35.8 ± 12.4 µM
